Results as given in patent US4058520A, “Aminoalkylthiopyridazine compounds” (The Dow Chemical Company, priority 1976, dated 1977).
Like-named read-outs stand apart in the source and are kept apart here.

Columns and labels:
[1] = test system: ADP induced aggregation of blood platelets (rat platelet rich plasma); test: inhibition of ADP induced platelet aggregation in vitro (rat platelet rich plasma, change in optical density; Born); type: cell-based; conditions: for IC50: 10 min, read-out: IC50 ADP (concentration at which ADP induced platelet aggregation is inhibited by 50%)
Protocol: Platelet aggregation was initiated in vitro by 0.125 to 0.25 mg/ml of ADP. Rat blood was collected into 3.0% trisodium citrate solution (1:10) by cardiac puncture under methoxyfurane anesthesia. The blood was centrifuged at 120 g for 10 minutes at room temperature and the supernatant platelet rich plasma was removed and diluted with lactated Ringer's solution containing the pyridazine aggregation inhibiting agent (1.0:1.5). Samples of 1.0 ml were pipetted into plastic test tubes and incubated for 10 minutes. Plastic equipment was used for all procedures. The concentration of the pyridazine compound in micromoles inhibiting ADP aggregation by 50% (IC50) was determined using changes in optical density as an indicium of platelet aggregation.
*Concentration in micromoles at which ADP induced platelet aggregation is […]

[2] = test system: apple scab; test: effectiveness against apple scab; type: in vivo; conditions: 400 parts per million
[3] = test system: rootknot nematode; test: killing and control of rootknot nematode; type: in vivo; conditions: 2.4 pounds per 100 cu. ft. of soil
[4] = test system: tobacco black root rot; test: fungicide, killing and control of tobacco black root rot; type: in vivo; conditions: 25 parts per million
[5] = test system: platelet aggregation / emboli formed in response to ADP; test: protection of mice from ADP challenge (inclined screen); type: in vivo; conditions: of ten mice; 60 mgs per kilogram orally; ADP via tail vein one hour after
Protocol: Emboli formed in the vascular system of mice in response to the administration of ADP cause a stroke-like response that prevents mice from staying on an inclined screen. To illustrate the platelet aggregation inhibition effect of the aminoalkylthiopyridazines, ten mice were dosed orally with 60 mgs per kilogram of body weight of the compound 6-chloro-3-(2-diisopropylamino)ethylthio)pyridazine. One hour after compound administration, the mice were challenged with ADP (0.05 M mole/kg) by injection via the tail vein and placed on an inclined screen. The unprotected control mice were unable to maintain their position on the screen.

[6] = rat platelet rich plasma, 0.125 to 0.25 mg/ml of ADP, incubated 10 minutes

Structure (SMILES): c1cc(SCCN2CCOCC2)nnc1SCCN1CCOCC1 [3,6-Bis(2-(4-morpholinyl)ethylthio)pyridazine]
- IC50 [1, 6]: 13800 µM
- effective against apple scab [2]: 90%

Structure (SMILES): Clc1ccc(SCCN2CCCCC2)nn1 [3-Chloro-6-(2-(1-piperidinyl)ethylthio)pyridazine]
- IC50 [1, 6]: 3300 µM

Structure (SMILES): Clc1ccc(SCCN2CCOCC2)nn1 [3-Chloro-6-(2-(4-morpholinyl)ethylthio)pyridazine]
- effective in the killing and control of rootknot nematode [3]: 90%
- IC50 ([1]; Rattus norvegicus, Platelet): 2600 µM

Structure (SMILES): Clc1ccc(SCCN2CCCCCC2)nn1 [3-Chloro-6-(2-(hexamethyleneimino)ethylthio)pyridazine]
- IC50 [1, 6]: 2430 µM

Structure (SMILES): Clc1ccc(SCCCN2CCOCC2)nn1 [3-Chloro-6-(3-(4-morpholinyl)propylthio)pyridazine]
- IC50 [1, 6]: 10500 µM

Structure (SMILES): CCN(CC)CCCSc1ccc(Cl)nn1 [3-Chloro-6-(3-(diethylamino)propylthio)pyridazine]
- effective as a fungicide in the killing and control of tobacco black root rot [4]: 100%
- IC50 [1, 6]: 3710 µM

Structure (SMILES): CN(C)CCCSc1ccc(Cl)nn1 [3-Chloro-6-(3-dimethylamino)propylthio)pyridazinium methane sulfonate]
- IC50 [1, 6]: 2400 µM

Structure (SMILES): CC(C)N(CCSc1ccc(Cl)nn1)C(C)C [6-Chloro-3-(2-(diisopropylamino)ethylthio)pyridazine]
- IC50 [1, 6]: 140 µM
- platelet aggregation inhibiting activity (in words) ([1]; Table I data): highly effective
- mice protected from the ADP challenge and remaining on the screen [5]: 10 mice
